Converted amounts (≈) assume the structure as drawn.
How the values were obtained:
Type in all cases: cell-based
[1] = test system: Gram-positive clinical isolate strains; test: Potency and selectivity against panel of Gram-positive clinical isolate strains; details: Ciprofloxacin standard (FIG. 9)
Source text: (§1) FIG. 9 illustrates the potency and selectivity of ND-7901 against a panel of Gram-positive clinical isolate strains compared to a Ciprofloxacin standard in micrograms per milliliter. […] FIG. 10 illustrates the potency and selectivity of ND-7901 against a panel of Gram-negative clinical isolate strains compared to a Ciprofloxacin standard in micrograms per milliliter.

[2] = test system: Gram-negative clinical isolate strains; test: Potency and selectivity against panel of Gram-negative clinical isolate strains; details: Ciprofloxacin standard (FIG. 10)
Source text: as §1

Gram-positive strains = test: MIC and MBC determinations against Gram-positive strains; details: most Gram-positive isolates (FIG. 11)
Procedure: FIG. 11 illustrates the minimum inhibitory concentration (MIC) and the minimum bactericidal concentration (MBC) determinations of ND-7901 to various Gram-positive strains. A series of broths were mixed with solutions of diluted drug an inoculum was applied. After incubation, the MIC was determined as the first concentration in which the growth of the organism has been inhibited. In contrast, the MBC was measured by inoculating the series of broths used for the MIC determination onto drug-free medium. The MBC is the first dilution at which growth is not observed. ND-7901 is bactericidal against most Gram-positive isolates.

[3] = test system: methicillin-sensitive S. aureus (MSSA), ATCC 29213; test: Time-kill assay; details: MSSA ATCC 29213, drug at various concentrations, Vancomycin as control (FIG. 12)
S. aureus strains [4] = test: Mutational analysis by growth without selection and recovery on drug plates; details: overnight growth with no selection, drug plates at 2-4 times the MIC (FIG. 13)
Source text: FIG. 13 illustrates a mutational analysis of […] by growth of S. aureus strains overnight with no selection and recovery of resistant colonies on drug plates at 2-4 times the MIC value.

S. aureus strains [5] = test: Mutational analysis by serial transfer experiments; details: 0.5-2 times the MIC, after 8 passages (FIG. 14)
Procedure: FIG. 14 illustrates the mutational analysis of ND-7901 by serial transfer experiments. As such, the S. aureus strains were grown with ND-7901 (0.5-2 times the MIC) added and passed serially until resistance was found.

[6] = test system: Methicillin-resistant Staphylococcus aureus (MRSA); test: MIC against MRSA
Source text: (§2) In embodiments, various molecules as described herein have surprising activity against MRSA. […] While this particular molecule has been tested previously, the present application is the first disclosure of this compound having activity against multi-drug resistant “super bug” strains. In addition, in accordance with an embodiment described herein, this compound and analogs thereof may be synthesized in high yields in just a single step. Further embodiments herein provide analogs of the afore-mentioned compounds and methods of making and using such compounds.
(§3) In accordance with an embodiment, in order to first broadly screen these compounds, an agar diffusion assay was employed to determine whether these compounds have any activity against a diverse array of organisms which include MRSA and VRE. […] FIG. 4 illustrates selectivity and potency of various benzimidazoles, benzthiazoles, and benzoxazoles against a panel of microorganisms including gram-positive bacteria, gram-negative bacteria, fungi, yeast, and mycobacteria. The minimum inhibition concentration at 90% is shown in micromolar concentration. […] Therefore many of the compounds had their MICs determined which reflected many of the findings of the diffusion assay. FIG. 5 illustrates the chemical structure, molecular weight, and chemical formula of most of the compounds of FIG. 4.

[7] = test system: Vancomycin-Resistant Enterococcus (VRE); test: MIC against VRE
Source text: as §2, §3

| MIC [6] | MIC [7] | SMILES | activity against Gram-positive isolates [1] | activity against Gram-negative isolates [2] | bactericidal character (MBC versus MIC) (Gram-positive strains) | kinetics of bacteria death (time-kill) [3] | spontaneous resistant mutants recovered (S. aureus strains [4]) | level of resistance after serial passage (S. aureus strains [5]) |
| --- | --- | --- | --- | --- | --- | --- | --- | --- |
| – | – | O=[N+]([O-])c1ccc(-c2nc3cccc(O)c3[nH]2)o1 [ND-7901] | good activity | limited activity | bactericidal | rapid kinetics of bacteria death | no spontaneous mutants were recovered | very low level of resistance |
| 8 µM (≈ 1.83 µg/mL) | 16 µM (≈ 3.67 µg/mL) | O=[N+]([O-])c1ccc(-c2nc3ccccc3[nH]2)o1 [nitrofuran benzimidazole] | – | – | – | – | – | – |

— patent US9617249B2, “Benzoheterocyclic anti-bacterial agents” (UNIVERSITY OF NOTRE DAME DU LAC, priority 2008, dated 2017)
